The target of this test is ATR kinase (full-length ATR) (Homo sapiens (Human), UniProt Q13535). Description: ATR inhibition assay (radioactive-phosphate incorporation). It is filed as biochemical. The following applies: Ki(app), 5 nM full-length ATR, 10 μM ATP, 25° C. The method, then:
Compounds were screened for their ability to inhibit ATR kinase using a radioactive-phosphate incorporation assay. Assays were carried out in a mixture of 50 mM Tris/HCl (pH 7.5), 10 mM MgCl2 and 1 mM DTT. Final substrate concentrations were 10 μM [γ-33P]ATP (3mCi 33P ATP/mmol ATP, Perkin Elmer) and 800 μM target peptide ([…]) (SEQ ID NO:1).
Assays were carried out at 25° C. in the presence of 5 nM full-length ATR. An assay stock buffer solution was prepared containing all of the reagents listed above, with the exception of ATP and the test compound of interest. 13.5 μL of the stock solution was placed in a 96 well plate followed by addition of 2 μL of DMSO stock containing serial dilutions of the test compound (typically starting from a final concentration of 15 μM with 3-fold serial dilutions) in duplicate (final DMSO concentration 7%). The plate was pre-incubated for 10 minutes at 25° C. and the reaction initiated by addition of 15 μL [γ-33P]ATP (final concentration 10 μM).
The reaction was stopped after […] by the addition of 30 μL 0.1M phosphoric acid containing 2 mM ATP. A multiscreen phosphocellulose filter 96-well plate (Millipore, Cat no. MAPHN0B50) was pretreated with 100 μL 0.2M phosphoric acid prior to the addition of […] of the stopped assay mixture. The plate was washed with 5×200 μL 0.2M phosphoric acid. After drying, 100 μL Optiphase ‘SuperMix’ liquid scintillation cocktail (Perkin Elmer) was added to the well prior to scintillation counting (1450 Microbeta Liquid Scintillation Counter, Wallac).
After removing mean background values for all of the data points, Ki(app) data were calculated from non-linear regression analysis of the initial rate data using the Prism software package (GraphPad Prism version 3.0cx for Macintosh, GraphPad Software, San Diego Calif., USA).

The results in this text go back to patent US10392391B2 (Vertex Pharmaceuticals Incorporated, priority 2012, dated 2019).

The structures appear in SMILES notation.

ATR kinase (full-length ATR), sequence (Q13535 whole entry): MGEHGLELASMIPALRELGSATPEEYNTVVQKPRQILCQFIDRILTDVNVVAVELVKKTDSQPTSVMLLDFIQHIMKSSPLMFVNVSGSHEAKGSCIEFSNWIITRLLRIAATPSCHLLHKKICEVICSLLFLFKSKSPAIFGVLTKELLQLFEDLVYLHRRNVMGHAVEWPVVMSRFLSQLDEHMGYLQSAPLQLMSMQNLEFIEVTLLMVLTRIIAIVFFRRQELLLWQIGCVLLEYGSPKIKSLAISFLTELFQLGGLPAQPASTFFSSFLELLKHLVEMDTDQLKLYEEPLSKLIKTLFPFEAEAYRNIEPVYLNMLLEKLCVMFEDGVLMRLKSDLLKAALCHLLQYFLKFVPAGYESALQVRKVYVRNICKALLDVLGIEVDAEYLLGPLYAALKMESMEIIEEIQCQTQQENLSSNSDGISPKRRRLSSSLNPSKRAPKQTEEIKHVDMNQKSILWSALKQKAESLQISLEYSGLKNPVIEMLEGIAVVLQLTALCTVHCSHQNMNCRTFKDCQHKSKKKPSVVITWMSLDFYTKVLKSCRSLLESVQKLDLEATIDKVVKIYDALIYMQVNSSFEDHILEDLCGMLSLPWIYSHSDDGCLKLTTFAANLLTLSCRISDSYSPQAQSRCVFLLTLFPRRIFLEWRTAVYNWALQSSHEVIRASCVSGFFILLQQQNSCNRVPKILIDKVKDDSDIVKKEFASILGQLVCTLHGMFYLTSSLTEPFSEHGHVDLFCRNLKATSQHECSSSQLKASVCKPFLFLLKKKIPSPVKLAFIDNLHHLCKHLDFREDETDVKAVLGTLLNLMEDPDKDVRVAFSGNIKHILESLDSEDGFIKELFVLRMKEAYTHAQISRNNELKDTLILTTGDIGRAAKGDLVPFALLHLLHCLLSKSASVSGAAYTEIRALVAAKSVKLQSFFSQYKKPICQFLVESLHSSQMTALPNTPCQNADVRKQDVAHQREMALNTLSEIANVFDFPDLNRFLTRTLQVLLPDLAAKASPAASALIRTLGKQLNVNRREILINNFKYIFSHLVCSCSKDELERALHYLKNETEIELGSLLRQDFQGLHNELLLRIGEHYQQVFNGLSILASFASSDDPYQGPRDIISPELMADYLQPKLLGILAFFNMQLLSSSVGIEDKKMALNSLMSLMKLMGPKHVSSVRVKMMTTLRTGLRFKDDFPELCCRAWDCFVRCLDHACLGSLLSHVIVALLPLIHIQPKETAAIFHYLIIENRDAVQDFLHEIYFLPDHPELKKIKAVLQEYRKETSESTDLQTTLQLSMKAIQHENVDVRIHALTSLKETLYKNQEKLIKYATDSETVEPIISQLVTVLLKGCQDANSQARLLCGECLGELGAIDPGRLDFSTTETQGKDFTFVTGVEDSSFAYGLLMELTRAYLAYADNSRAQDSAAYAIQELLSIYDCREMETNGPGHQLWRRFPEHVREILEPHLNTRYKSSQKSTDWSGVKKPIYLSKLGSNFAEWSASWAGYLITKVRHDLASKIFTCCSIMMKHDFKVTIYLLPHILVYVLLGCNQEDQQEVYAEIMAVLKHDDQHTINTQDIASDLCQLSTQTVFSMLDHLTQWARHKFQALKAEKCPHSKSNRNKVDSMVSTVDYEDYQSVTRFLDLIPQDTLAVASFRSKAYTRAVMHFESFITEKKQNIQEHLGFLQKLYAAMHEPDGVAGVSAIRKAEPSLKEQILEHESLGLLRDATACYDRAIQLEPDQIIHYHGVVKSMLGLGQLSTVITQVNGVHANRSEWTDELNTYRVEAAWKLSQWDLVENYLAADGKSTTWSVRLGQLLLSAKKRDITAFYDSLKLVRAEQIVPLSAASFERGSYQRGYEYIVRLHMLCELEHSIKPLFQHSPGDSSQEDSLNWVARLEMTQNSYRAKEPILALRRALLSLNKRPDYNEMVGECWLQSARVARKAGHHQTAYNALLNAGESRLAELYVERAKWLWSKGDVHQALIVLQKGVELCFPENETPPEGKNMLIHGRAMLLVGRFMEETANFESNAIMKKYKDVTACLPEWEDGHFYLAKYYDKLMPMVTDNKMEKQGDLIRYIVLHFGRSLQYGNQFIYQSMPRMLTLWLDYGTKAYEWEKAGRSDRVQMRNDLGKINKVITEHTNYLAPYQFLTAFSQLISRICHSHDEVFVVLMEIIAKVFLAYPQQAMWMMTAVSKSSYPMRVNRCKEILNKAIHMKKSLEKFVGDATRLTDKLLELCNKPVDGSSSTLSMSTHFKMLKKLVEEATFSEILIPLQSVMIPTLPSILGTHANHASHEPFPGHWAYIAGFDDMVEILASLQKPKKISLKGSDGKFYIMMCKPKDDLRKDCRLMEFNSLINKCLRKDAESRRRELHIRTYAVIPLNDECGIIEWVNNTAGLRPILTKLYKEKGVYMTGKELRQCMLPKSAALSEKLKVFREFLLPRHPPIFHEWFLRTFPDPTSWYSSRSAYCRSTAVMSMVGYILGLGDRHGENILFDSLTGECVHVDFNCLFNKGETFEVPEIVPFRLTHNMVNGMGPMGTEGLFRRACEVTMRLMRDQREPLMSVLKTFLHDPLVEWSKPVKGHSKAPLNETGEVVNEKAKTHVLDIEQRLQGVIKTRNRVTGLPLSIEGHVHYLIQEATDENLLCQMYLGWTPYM

Regarding `Cc1cncc(NC(=O)c2c(N)nn3cc(F)cnc23)c1-n1nccc1C` [I-N-237], the Ki is 10 to 1000 nM.
The figure for `Nc1nn2cc(F)cnc2c1C(=O)Nc1cnccc1O[C@H]1CCCN(C2COC2)C1` [I-O-9, (S)-2-amino-6-fluoro-N-(4-((1-(oxetan-3-yl)piperidin-3-yl)oxy)pyridin-3-yl)pyrazolo[1,5-a]pyrimidine-3-carboxamide] is 10 to 1000 nM; for `CN1CCN2CCN(c3ccncc3NC(=O)c3c(N)nn4cc(Cl)cnc34)CC2C1` (stereo not shown) [I-N-61, 2-amino-6-chloro-N-(4-(8-methylhexahydro-1H-pyrazino[1,2-a]pyrazin-2(6H)-yl)pyridin-3-yl)pyrazolo[1,5-a]pyrimidine-3-carboxamide] it is 10 to 1000 nM.
Under `CO[C@@H]1CCN(C(=O)C2CCN(c3ccncc3NC(=O)c3c(N)nn4cc(F)cnc34)CC2)C1` [I-G-93, (R)-2-amino-6-fluoro-N-(4-(4-(3-methoxypyrrolidine-1-carbonyl)piperidin-1-yl)pyridin-3-yl)pyrazolo[1,5-a]pyrimidine-3-carboxamide] stands 10 to 1000 nM; under `CN1C[C@@H]2CCN(c3ccncc3NC(=O)c3c(N)nn4cc(F)cnc34)C[C@@H]2C1=O` [I-N-224, 2-amino-6-fluoro-N-(4-((3aR,7aR)-2-methyl-3-oxohexahydro-1H-pyrrolo[3,4-c]pyridin-5(6H)-yl)pyridin-3-yl)pyrazolo[1,5-a]pyrimidine-3-carboxamide], 10 to 1000 nM; under `Nc1nn2cc(F)cnc2c1C(=O)Nc1cncc(F)c1N1CC(=O)N2CCCC2C1` (stereo not shown) [I-N-232, 2-amino-6-fluoro-N-(5-fluoro-4-(4-oxohexahydropyrrolo[1,2-a]pyrazin-2(1H)-yl)pyridin-3-yl)pyrazolo[1,5-a]pyrimidine-3-carboxamide], 10 to 1000 nM.
The figure for `N#CCc1cnc2c(C(=O)Nc3cnccc3N3CCNCC3)c(N)nn2c1` [I-N-89, 2-amino-6-(cyanomethyl)-N-(4-(piperazin-1-yl)pyridin-3-yl)pyrazolo[1,5-a]pyrimidine-3-carboxamide] is 10 to 1000 nM; for `Nc1nn2cc(F)cnc2c1C(=O)Nc1cnccc1N1CCN2C(=O)CCCC2C1` (stereo not shown) [I-N-244, 2-amino-6-fluoro-N-(4-(6-oxohexahydro-1H-pyrido[1,2-a]pyrazin-2(6H)-yl)pyridin-3-yl)pyrazolo[1,5-a]pyrimidine-3-carboxamide] it is 10 to 1000 nM.
Turning to `CC1CN(C)CCN1c1ccncc1NC(=O)c1c(N)nn2cc(Cl)cnc12` (stereo not shown) [I-N-72, 2-amino-6-chloro-N-(4-(2,4-dimethylpiperazin-1-yl)pyridin-3-yl)pyrazolo[1,5-a]pyrimidine-3-carboxamide], the Ki is 10 to 1000 nM.
Regarding `Nc1nn2cc(F)cnc2c1C(=O)Nc1cncc(F)c1N1CCC(C(=O)N2CCNC3CC32)CC1` (stereo not shown) [I-G-62, N-(4-(4-(2,5-diazabicyclo[4.1.0]heptane-2-carbonyl)piperidin-1-yl)-5-fluoropyridin-3-yl)-2-amino-6-fluoropyrazolo[1,5-a]pyrimidine-3-carboxamide], the Ki lay within 10 to 1000 nM.
As for `CN(C)CCOc1ccncc1NC(=O)c1c(N)nn2cc(CC#N)cnc12` [I-O-24, 2-amino-6-(cyanomethyl)-N-(4-(2-(dimethylamino)ethoxy)pyridin-3-yl)pyrazolo[1,5-a]pyrimidine-3-carboxamide], the Ki was under 10 nM.
On to `COC1CN(C2CCN(c3ccncc3NC(=O)c3c(N)nn4cc(Cl)cnc34)CC2)C1` [I-N-107, 2-amino-6-chloro-N-(4-(4-(3-methoxyazetidin-1-yl)piperidin-1-yl)pyridin-3-yl)pyrazolo[1,5-a]pyrimidine-3-carboxamide], for which the Ki fell in the range of 10 to 1000 nM.
Under `N#CCc1cnc2c(C(=O)Nc3cnccc3OC3COC3)c(N)nn2c1` [I-O-38, 2-amino-6-(cyanomethyl)-N-(4-(oxetan-3-yloxy)pyridin-3-yl)pyrazolo[1,5-a]pyrimidine-3-carboxamide] stands under 10 nM.
